This note sets out measurements from PMC9250534, “Synthesis and direct assay of large macrocycle diversities by combinatorial late-stage modification at picomole scale” (Nature Communications, 2022).

SMILES strings stand for the structures.

In the test the target is MDM2 (Homo sapiens, UniProt Q00987). Description: MDM2 binding screen of Libraries 3 and 4: displacement of fluorescent probe F-M8 at 750 nM macrocycle. The note with it: Panel b, Library 3: 63 scaffolds combinatorially acylated with 15 carboxylic acids at 30 picomole scale; displacement of fluorescent peptide probe; macrocycle 750 nM. In outline: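 Competition with nutlin-3a was run using the fluorescein conjugate. Library members came from scaffolds reacted 6 h at room temperature with carboxylic acids (20 equiv.), HBTU and DABCO in DMSO. Quenching was overnight in Tris-Cl pH 7.4 buffer with 0.01% Tween20.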
MDM2, sequence (Q00987 whole entry): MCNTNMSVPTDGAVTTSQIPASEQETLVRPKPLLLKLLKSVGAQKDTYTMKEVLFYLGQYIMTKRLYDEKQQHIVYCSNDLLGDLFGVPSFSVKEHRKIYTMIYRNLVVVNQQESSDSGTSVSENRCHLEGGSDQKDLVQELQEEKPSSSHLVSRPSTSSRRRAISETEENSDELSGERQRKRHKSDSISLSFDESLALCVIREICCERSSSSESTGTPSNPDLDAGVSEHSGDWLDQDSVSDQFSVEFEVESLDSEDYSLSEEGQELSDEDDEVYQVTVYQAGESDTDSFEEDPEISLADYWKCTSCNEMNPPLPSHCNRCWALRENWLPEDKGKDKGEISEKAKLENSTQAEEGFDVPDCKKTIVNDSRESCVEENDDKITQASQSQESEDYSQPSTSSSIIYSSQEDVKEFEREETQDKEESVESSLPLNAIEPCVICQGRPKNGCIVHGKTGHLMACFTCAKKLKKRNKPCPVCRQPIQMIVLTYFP
For the molecule `CN1C(=O)CN(CCNC(=O)c2ccc(Cl)cc2)C(=O)C2(CC2)CNC(=O)CCSSCCNC(=O)[C@@H]1Cc1c[nH]c2ccccc12` [X-Amcp-N-Aeg-NMe-Trp + Acid 25], the “fraction of fluorescent probe displaced” value is reported as -0.012. Consider `CN1C(=O)CN(CCNC(=O)c2ccc3ccccc3c2)C(=O)C2(CC2)CNC(=O)CCSSCCNC(=O)[C@@H]1Cc1c[nH]c2ccccc12` [X-Amcp-N-Aeg-NMe-Trp + Acid 107], for which the “fraction of fluorescent probe displaced” value came out at 0.031. The value for `CN1C(=O)CN(CCNC(=O)/C=C/c2ccc(OCc3ccccc3)cc2)C(=O)C2(CC2)CNC(=O)CCSSCCNC(=O)[C@@H]1Cc1c[nH]c2ccccc12` [X-Amcp-N-Aeg-NMe-Trp + Acid 110] was -0.00533; that for `CN1C(=O)CN(CCNC(=O)c2cccc(Oc3ccccc3)c2)C(=O)C2(CC2)CNC(=O)CCSSCCNC(=O)[C@@H]1Cc1c[nH]c2ccccc12` [X-Amcp-N-Aeg-NMe-Trp + Acid 111] was 0.00133. Regarding `CN1C(=O)CN(CCNC(=O)/C=C/c2ccc3ccccc3c2)C(=O)C2(CC2)CNC(=O)CCSSCCNC(=O)[C@@H]1Cc1c[nH]c2ccccc12` [X-Amcp-N-Aeg-NMe-Trp + Acid 112], the “fraction of fluorescent probe displaced” value is recorded as -0.019. With `O=C1CCSSCCNC(=O)[C@H](Cc2c[nH]c3ccccc23)NC(=O)CN(CCNC(=O)c2ccc(Cl)cc2)C(=O)C2(CC2)CN1` [X-Amcp-N-Aeg-Trp + Acid 25], the “fraction of fluorescent probe displaced” value worked out at 0.00133. For `O=C1CCSSCCNC(=O)C(Cc2c[nH]c3ccccc23)NC(=O)CN(CCNC(=O)C2CC2c2ccccc2)C(=O)C2(CC2)CN1` (stereo not drawn) [X-Amcp-N-Aeg-Trp + Acid 105], the “fraction of fluorescent probe displaced” value was -0.015.

With `O=C1CCSSCCNC(=O)[C@H](Cc2c[nH]c3ccccc23)NC(=O)CN(CCNC(=O)c2ccc3ccccc3c2)C(=O)C2(CC2)CN1` [X-Amcp-N-Aeg-Trp + Acid 107], the “fraction of fluorescent probe displaced” value was 0.018. The value for `O=C(/C=C/c1ccc(OCc2ccccc2)cc1)NCCN1CC(=O)N[C@@H](Cc2c[nH]c3ccccc23)C(=O)NCCSSCCC(=O)NCC2(CC2)C1=O` [X-Amcp-N-Aeg-Trp + Acid 110] was 0.015. With `O=C(/C=C/c1ccc2ccccc2c1)NCCN1CC(=O)N[C@@H](Cc2c[nH]c3ccccc23)C(=O)NCCSSCCC(=O)NCC2(CC2)C1=O` [X-Amcp-N-Aeg-Trp + Acid 112], the “fraction of fluorescent probe displaced” value is 0.041. `CC(Oc1cccc(Cl)c1)C(=O)NCCN1CC(=O)N[C@@H](Cc2c[nH]c3ccccc23)C(=O)NCCSSCCC(=O)NCC2(CC2)C1=O` (stereo partly drawn) [X-Amcp-N-Aeg-Trp + Acid 113]: the “fraction of fluorescent probe displaced” value stood at 0.035. The value for `O=C(CCS(=O)(=O)c1ccccc1)NCCN1CC(=O)N[C@@H](Cc2c[nH]c3ccccc23)C(=O)NCCSSCCC(=O)NCC2(CC2)C1=O` [X-Amcp-N-Aeg-Trp + Acid 114] was 0.021; that for `O=C(/C=C/c1ccc(Cl)cc1)NC[C@H]1NC(=O)[C@@H]2CN(CCO2)C(=O)CCSSCCNC(=O)[C@H](Cc2cccc3ccccc23)NC1=O` [X-Cop-D-Dap-1-NaI + Acid 108] was 0.028. Take `O=C(/C=C/c1ccc(OCc2ccccc2)cc1)NC[C@H]1NC(=O)[C@@H]2CN(CCO2)C(=O)CCSSCCNC(=O)[C@H](Cc2cccc3ccccc23)NC1=O` [X-Cop-D-Dap-1-NaI + Acid 110]: the “fraction of fluorescent probe displaced” value is reported as 0.048. The value for `O=C(NCC1NC(=O)C2CN(CCO2)C(=O)CCSSCCNC(=O)C(Cc2cccc3ccccc23)NC1=O)c1cccc(Oc2ccccc2)c1` [X-Cop-D-Dap-1-NaI + Acid 111] was 0.008; that for `CC(Oc1cccc(Cl)c1)C(=O)NC[C@H]1NC(=O)[C@@H]2CN(CCO2)C(=O)CCSSCCNC(=O)[C@H](Cc2cccc3ccccc23)NC1=O` (stereo partly drawn) [X-Cop-D-Dap-1-NaI + Acid 113] was 0.008. In the case of `O=C(CCS(=O)(=O)c1ccccc1)NC[C@H]1NC(=O)[C@@H]2CN(CCO2)C(=O)CCSSCCNC(=O)[C@H](Cc2cccc3ccccc23)NC1=O` [X-Cop-D-Dap-1-NaI + Acid 114], the “fraction of fluorescent probe displaced” value came to 0.008. The value for `O=C(NC[C@H]1NC(=O)[C@@H]2CN(CCO2)C(=O)CCSSCCNC(=O)[C@H](Cc2ccc3ccccc3c2)NC1=O)c1ccc(Cl)s1` [X-Cop-D-Dap-2-Nal + Acid 14] was -0.00533; that for `O=C(NC[C@H]1NC(=O)[C@@H]2CN(CCO2)C(=O)CCSSCCNC(=O)[C@H](Cc2ccc3ccccc3c2)NC1=O)c1ccc(Cl)cc1` [X-Cop-D-Dap-2-Nal + Acid 25] was 0.00133. For `O=C(NCC1NC(=O)C2CN(CCO2)C(=O)CCSSCCNC(=O)C(Cc2ccc3ccccc3c2)NC1=O)c1ccc2ccccc2c1` [X-Cop-D-Dap-2-Nal + Acid 107], the “fraction of fluorescent probe displaced” value stood at 0.00455. As to `O=C(C=Cc1ccc(OCc2ccccc2)cc1)NCC1NC(=O)C2CN(CCO2)C(=O)CCSSCCNC(=O)C(Cc2ccc3ccccc3c2)NC1=O` [X-Cop-D-Dap-2-Nal + Acid 110], the “fraction of fluorescent probe displaced” value is listed as 0.035. In the case of `O=C(NC[C@H]1NC(=O)[C@@H]2CN(CCO2)C(=O)CCSSCCNC(=O)[C@H](Cc2ccc3ccccc3c2)NC1=O)c1cccc(Oc2ccccc2)c1` [X-Cop-D-Dap-2-Nal + Acid 111] it was 0.00133; in that of `O=C(/C=C/c1ccc2ccccc2c1)NC[C@H]1NC(=O)[C@@H]2CN(CCO2)C(=O)CCSSCCNC(=O)[C@H](Cc2ccc3ccccc3c2)NC1=O` [X-Cop-D-Dap-2-Nal + Acid 112], 0.021; in that of `O=C(CCS(=O)(=O)c1ccccc1)NC[C@H]1NC(=O)[C@@H]2CN(CCO2)C(=O)CCSSCCNC(=O)[C@H](Cc2ccc3ccccc3c2)NC1=O` [X-Cop-D-Dap-2-Nal + Acid 114], -0.00533. On to `O=C(NC[C@H]1NC(=O)[C@@H]2CN(CCO2)C(=O)CCSSCCNC(=O)[C@H](Cc2c[nH]c3cc(Cl)ccc23)NC1=O)c1ccc(Cl)s1` [X-Cop-D-Dap-Cl-Trp + Acid 14], for which the “fraction of fluorescent probe displaced” value is listed as -0.00533. In the case of `O=C(/C=C/c1ccc(OCc2ccccc2)cc1)NC[C@H]1NC(=O)[C@@H]2CN(CCO2)C(=O)CCSSCCNC(=O)[C@H](Cc2c[nH]c3cc(Cl)ccc23)NC1=O` [X-Cop-D-Dap-Cl-Trp + Acid 110] it was 0.035; in that of `O=C(/C=C/c1ccc2ccccc2c1)NC[C@H]1NC(=O)[C@@H]2CN(CCO2)C(=O)CCSSCCNC(=O)[C@H](Cc2c[nH]c3cc(Cl)ccc23)NC1=O` [X-Cop-D-Dap-Cl-Trp + Acid 112], 0.055; in that of `O=C(/C=C/c1ccc(OCc2ccccc2)cc1)NC[C@H]1NC(=O)[C@@H]2CN(CCO2)C(=O)CCSSCCNC(=O)[C@@H](Cc2c[nH]c3ccccc23)NC1=O` [X-Cop-D-Dap-D-Trp + Acid 110], 0.015.

For `O=C(/C=C/c1ccc2ccccc2c1)NC[C@H]1NC(=O)[C@@H]2CN(CCO2)C(=O)CCSSCCNC(=O)[C@@H](Cc2c[nH]c3ccccc23)NC1=O` [X-Cop-D-Dap-D-Trp + Acid 112], the “fraction of fluorescent probe displaced” value is 0.021. Turning to `CC(Oc1cccc(Cl)c1)C(=O)NCC1NC(=O)C2CN(CCO2)C(=O)CCSSCCNC(=O)C(Cc2c[nH]c3ccccc23)NC1=O` [X-Cop-D-Dap-D-Trp + Acid 113], the “fraction of fluorescent probe displaced” value was 0.008.
